Laboratory results: article doi:10.1101/2025.04.25.650653, “Hierarchical small molecule inhibition of MYST acetyltransferases” (bioRxiv, 2025)
Where “and” joins values, the source holds several entries; their conditions need not be identical. Identical values can stand only once.

Test system: histone modifications in MCF-7 cells
Assay: Histone modification analysis by bottom-up LC-MS/MS
Type: cell-based
Conditions: Replicates 1-3
Text: In this approach. […] Histones are then extracted from cell pellets and chemically derivatized with propionic anhydride, digested with trypsin, subjected to a second round of propionylation, and analyzed by LC-MS/MS. Measuring the relative intensity of modified versus unmodified forms of individual histone peptides enables simultaneous monitoring of multiple potential biomarkers of MYST inhibition. To minimize false positives, we focused on abundant and reproducible modifications (average stoichiometry of greater than 1% across triplicate samples, standard deviation less than or equal to the average measurement). To account for potential histone modification crosstalk, changes in both acetylated and methylated peptides were evaluated. 38 modified peptides passed this reproducible detection threshold including several established KAT biomarkers[41] including H3K9Ac (KAT2A/B), H3K18Ac (KAT3A/B), H3K14Ac (KAT7), H3K23Ac (KAT6A/B), H4K16Ac (KAT8), and H2A.ZK4/K7Ac (KAT5; Fig. 4B).
Histone modification analysis
MCF-7 cells were cultured at 37 °C under 5% CO2 in EMEM (Quality Biological, 112-016-101) with 0.01 mg/mL human recombinant insulin (Sigma Aldrich, 91077C), 2 mM L-glutamine (Quality Biological, 118- […]
human recombinant insulin.
1119, WM-3835). Following 24 h inhibitor treatment, cells were washed with ice-cold 1× PBS and scraped in 150 µL of Nuclear Isolation Buffer (NIB) containing 0.1% NP-40 for histone extraction using a modified protocol from the Garcia laboratory. 9 Briefly, cell suspensions were incubated on ice for 5 minutes, and […]
nuclei were pelleted by centrifugation (600 rcf, 4°C, 5 min). Pelleted nuclei were washed twice with 150 μL of detergent-free NIB buffer, followed by centrifugation (600 rcf, 4°C, 5 min) to remove all detergent.
Nuclei were then resuspended in 400 μL of 0.4 N H₂SO₄ and rotated at 4°C overnight for acid extraction of histones. The following day, samples were centrifuged (11,000 rcf, 4°C, 10 min) and the histone-containing supernatant was transferred to a fresh tube. Trichloroacetic acid (100% TCA) was added to achieve a final concentration of 20% (v/v), tubes were inverted once to mix, and histone precipitation was performed on ice for at least 3 hours or overnight at 4°C. Precipitated histones were collected by centrifugation (11,000 rcf, 4°C, 10 min) and the supernatant carefully removed, leaving a visible film of histones on the tube wall or bottom. Histone pellets were subjected to sequential washes with 1 mL of ice-cold acidified acetone (0.1% 12 N HCl) followed by 1 mL of 100% ice-cold acetone, with centrifugation (11,000 rcf, 4°C, 5 min) after each wash. Samples were air-dried at room temperature, resuspended in 40 µL of ddH₂O, and protein […]
analysis, 1-2 µg of purified histones were loaded per lane and processed according to the general immunoblotting protocol described in General Materials and Methods.
Analysis of histone modifications by LC-MS/MS
Preparation of histone samples for LC-MS/MS was performed analogously to the procedure for immunoblotting above, with the following modifications. MCF7 cells (4.2 × 106) were seeded in 15 cm dishes and treated with PF-9363 or vehicle. Experiments were performed in triplicate. Following treatment and PBS washing, cells were scraped and collected in 15 mL falcon tubes, pelleted (500 rcf, 4°C, 5 min), resuspended in 1 mL cold PBS, transferred to microcentrifuge tubes, and pelleted again before flash-freezing in liquid nitrogen for storage at -80°C. For extraction, cell pellets (~100 μL) were resuspended in NIB buffer at a 1:10 ratio, and cells were lysed with NIB buffer containing 0.2% NP-40 for 8 minutes on ice. Nuclei were pelleted at 1,000 rcf for 8 minutes and washed three times with 500 μL detergent-free NIB buffer. Histones were extracted using 800 μL of 0.2 M H₂SO₄, and after centrifugation (3,400 rcf, 4°C, 10

## COc1cccc(OC)c1S(=O)(=O)Nc1noc2cc(Cn3cccn3)cc(OC)c12 [PF-9363]
PF-9363 1
  Ratio, H2A1_4_11 unmod: 0.8988 and 0.8885 and 0.9043
  Ratio, H2A1_36_42 unmod: 0.9987 (2×) and 0.999
  Ratio, H2A3_36_42 unmod: 1
  Ratio, H2AJ_4_11 K5acK9ac: 0.8841 and 0.8218 and 0.8897
  Ratio, H2AV_1_19 K4ac: 0.04613 and 0.03379 and 0.05235
  Ratio, H2AV_1_19 unmod: 0.7904 and 0.9003 and 0.7876
  Ratio, H2AX_4_11 unmod: 0.3103 and 0.2578 and 0.2996
  Ratio, H2AX_36_42 unmod: 1
  Ratio, H2AZ_1_19 K11ac: 0.007104 and 0.02367 and 0.02119
  Ratio, H2AZ_1_19 unmod: 0.8748 and 0.8677 and 0.8766
  Ratio, H3_73_83 K79me1: 0.08571 and 0.09293 and 0.08865
  Ratio, H3_73_83 K79me2: 0.07582 and 0.06553 and 0.05074
  Ratio, H3_73_83 unmod: 0.8373 and 0.84 and 0.8592
  Ratio, H4_4_17 K12acK16ac: 0.009843 and 0.01149 and 0.01038
  Ratio, H4_4_17 unmod: 0.6943 and 0.6691 and 0.6837
  Ratio, H4_20_23 K20me1: 0.04112 and 0.02779 and 0.03237
  Ratio, H4_20_23 unmod: 0.02967 and 0.03053 and 0.03337
PF-9363 10
  Ratio, H2A1_1_11 K5ac: 0.7349 and 0.6528 and 0.8541
  Ratio, H2A1_4_11 K5ac: 0.05941 and 0.05561 and 0.05439
  Ratio, H2A1_4_11 K9ac: 0.0376 and 0.02679 and 0.04578
  Ratio, H2A1_4_11 unmod: 0.8844 and 0.9105 and 0.8938
  Ratio, H2A1_36_42 unmod: 0.9994 and 0.9989 and 0.9987
  Ratio, H2A3_36_42 unmod: 1
  Ratio, H2AJ_4_11 K5acK9ac: 0.87 and 0.9304 and 0.8571
  Ratio, H2AV_1_19 K4ac: 0.03545 and 0 and 0.04516
  Ratio, H2AV_1_19 unmod: 0.7519 and 0 and 0.8693
  Ratio, H2AX_4_11 unmod: 0.3078 and 0.3089 and 0.315
  Ratio, H2AX_36_42 unmod: 0.9999 and 1 (2×)
  Ratio, H2AZ_1_19 K11ac: 0.002627 and 0 and 0.03573
  Ratio, H2AZ_1_19 unmod: 0.8481 and 0 and 0.8795
  Ratio, H3_73_83 K79me1: 0.0968 and 0.09055 and 0.1061
  Ratio, H3_73_83 K79me2: 0.04989 and 0 and 0.05862
  Ratio, H3_73_83 unmod: 0.8517 and 0.9094 and 0.8343
  Ratio, H4_4_17 K12acK16ac: 0.004929 and 0.3101 and 0.006064
  Ratio, H4_4_17 unmod: 0.8097 and 0 and 0.7957
  Ratio, H4_20_23 K20me1: 0.03215 and 0 and 0.02863
  Ratio, H4_20_23 unmod: 0.01905 and 0.02691 and 0.02102
PF-9363 30
  Ratio, H2A1_1_11 K5ac: 0.8425 and 0.9367 and 0.7907
  Ratio, H2A1_4_11 K5ac: 0.04965 and 0.0448 and 0.04948
  Ratio, H2A1_4_11 K9ac: 0.02646 and 0.04262 and 0.03503
  Ratio, H2A1_4_11 unmod: 0.9191 and 0.9063 and 0.9088
  Ratio, H2A1_36_42 unmod: 0.9989 and 0.9987 and 0.9988
  Ratio, H2A3_36_42 unmod: 1
  Ratio, H2AJ_4_11 K5acK9ac: 0.9299 and 0.8746 and 0.8721
  Ratio, H2AV_1_19 K4ac: 0.04726 and 0.04134 and 0.0354
  Ratio, H2AV_1_19 unmod: 0.8732 and 0.735 and 0.7339
  Ratio, H2AX_4_11 unmod: 0.3537 and 0.3214 and 0.3151
  Ratio, H2AX_36_42 unmod: 1
  Ratio, H2AZ_1_19 K11ac: 0 and 0.03845 and 0.003881
  Ratio, H2AZ_1_19 unmod: 1 and 0.8991 and 0.9454
  Ratio, H3_73_83 K79me1: 0.07412 and 0.08491 and 0.08741
  Ratio, H3_73_83 K79me2: 0.05912 and 0.06141 and 0.04678
  Ratio, H3_73_83 unmod: 0.865 and 0.8523 and 0.8643
  Ratio, H4_4_17 K12acK16ac: 0.3308 and 0.002262 and 0.2125
  Ratio, H4_4_17 unmod: 0.05921 and 0.8851 and 0.358
  Ratio, H4_20_23 K20me1: 0 and 0.03437 and 0.03685
  Ratio, H4_20_23 unmod: 0.02728 and 0.02218 and 0.01429
